In patent publication US6448204B1, “Herbicidal 2-aryloxy-4-methyl-6-pyrazol-1-yl-pyridines” (BASF Aktiengesellschaft, priority 1999, dated 2002):

Key:
Format in all cases: in vivo
Stellaria media (STEME) [1] = test: Pre-emergence test; settings: 0.400 kg/ha, 3 weeks after treatment
Method: (§1) To evaluate their herbicidal activity, compounds according to the invention are tested using a representative range of plants: […] The pre-emergence tests involve spraying a liquid formulation of the compound onto the soil in which the seeds of the plant species mentioned above has recently been sown. The soil used in the tests is a prepared horticultural loam. […] In these tests untreated sown soil are used as controls.

Zea mays (ZEAMX) = test: Pre-emergence test; settings: crop (corn), 3 weeks after treatment
Method: as §1

[2] = tested on: Abutilon theophrasti (ABUTH); test: Post-emergence test; settings: 2-4 weeks after treatment
Method: (§2) To evaluate their herbicidal activity, compounds according to the invention are tested using a representative range of plants:
(§3) These acetone solutions are diluted with water and the resulting formulations applied at dosage levels equivalent of about 0.025 to 0.4 kg per hectare of test compound per pot. After spraying the plants are placed on greenhouse benches and are cared for in the usual manner, commensurate with conventional greenhouse practices. From 2 to 4 weeks after treatment, the seedling plants are examined and rated according to the rating system provided above.

[3] = tested on: Alopecurus myosuroides (ALOMY); test: Post-emergence test; settings: 2-4 weeks after treatment
Method: as §2, §3

[4] = tested on: Ambrosia artemisifolia (AMBEL); test: Post-emergence test; settings: 2-4 weeks after treatment
Method: as §2, §3

[5] = tested on: Cassia obtusifolia (CASOB); test: Post-emergence test; settings: 2-4 weeks after treatment
Method: as §2, §3

[6] = tested on: Digitaria sanguinalis (DIGSA); test: Post-emergence test; settings: 2-4 weeks after treatment
Method: as §2, §3

[7] = tested on: Echinochloa crus-galli (ECHCG); test: Post-emergence test; settings: 2-4 weeks after treatment
Method: as §2, §3

Galium aparine (GALAP) = test: Post-emergence test; settings: 2-4 weeks after treatment
Method: as §2, §3

[8] = tested on: Ipomoea hederacea (IPOHE); test: Post-emergence test; settings: 2-4 weeks after treatment
Method: as §2, §3

Lamium purpureum (LAMPU) = test: Post-emergence test; settings: 2-4 weeks after treatment
Method: as §2, §3

[9] = tested on: Lolium multiflorum (LOLMU); test: Post-emergence test; settings: 2-4 weeks after treatment
Method: as §2, §3

[10] = tested on: Matricaria inodora (MATIN); test: Post-emergence test; settings: 2-4 weeks after treatment
Method: as §2, §3

Setaria viridis (SETVI) = test: Post-emergence test; settings: 2-4 weeks after treatment
Method: as §2, §3

Stellaria media (STEME) [11] = test: Post-emergence test; settings: 2-4 weeks after treatment
Method: as §2, §3

[12] = tested on: thirteen weed species (broadleaf weeds and grasses); test: Pre-emergence test, summary over all weeds; settings: for Number of weed species well / sufficiently controlled: out of thirteen species
Method: as §1

weed species = test: Post-emergence test, summary over all weeds
Method: as §2, §3

Cn1nc(C(F)(F)F)cc1Oc1cccc(-n2ccc(C(F)(F)F)n2)n1 [Comparison]
Assessment rating STEME (pre-emergence application) (Stellaria media (STEME) [1]): 9 (9 - Complete kill) | Assessment rating ZEAMX (pre-emergence application) (Zea mays (ZEAMX); 0.013 kg/ha): 0 (0 - No effect) | Assessment rating ZEAMX (pre-emergence application) (Zea mays (ZEAMX); 0.025 kg/ha): 0 (0 - No effect) | Assessment rating ZEAMX (pre-emergence application) (Zea mays (ZEAMX); 0.100 kg/ha): 1 (1 - Trace effect) | Assessment rating ZEAMX (pre-emergence application) (Zea mays (ZEAMX); 0.400 kg/ha): 2 (2 - Slight effect) | Rating ABUTH (post-emergence application) ([2]; 0.025 kg/ha): 3 (3 - Moderate effect) | Rating ABUTH (post-emergence application) ([2]; 0.100 kg/ha): 6 (6 - Herbicidal effect) | Rating ABUTH (post-emergence application) ([2]; 0.400 kg/ha): 8 (8 - Approaching complete kill) | Rating ALOMY (post-emergence application) ([3]; 0.025 kg/ha): 2 (2 - Slight effect) | Rating ALOMY (post-emergence application) ([3]; 0.100 kg/ha): 4 (4 - Injury) | Rating ALOMY (post-emergence application) ([3]; 0.400 kg/ha): 8 (8 - Approaching complete kill) | Rating AMBEL (post-emergence application) ([4]; 0.025 kg/ha): 2 (2 - Slight effect) | Rating AMBEL (post-emergence application) ([4]; 0.100 kg/ha): 6 (6 - Herbicidal effect) | Rating AMBEL (post-emergence application) ([4]; 0.400 kg/ha): 8 (8 - Approaching complete kill) | Rating CASOB (post-emergence application) ([5]; 0.025 kg/ha): 9 (9 - Complete kill) | Rating CASOB (post-emergence application) ([5]; 0.100 kg/ha): 9 (9 - Complete kill) | Rating CASOB (post-emergence application) ([5]; 0.400 kg/ha): 9 (9 - Complete kill) | Rating DIGSA (post-emergence application) ([6]; 0.025 kg/ha): 3 (3 - Moderate effect) | Rating DIGSA (post-emergence application) ([6]; 0.100 kg/ha): 6 (6 - Herbicidal effect) | Rating DIGSA (post-emergence application) ([6]; 0.400 kg/ha): 8 (8 - Approaching complete kill) | Rating ECHCG (post-emergence application) ([7]; 0.025 kg/ha): 4 (4 - Injury) | Rating ECHCG (post-emergence application) ([7]; 0.100 kg/ha): 7 (7 - Good herbicidal effect) | Rating ECHCG (post-emergence application) ([7]; 0.400 kg/ha): 9 (9 - Complete kill) | Rating GALAP (post-emergence application) (Galium aparine (GALAP); 0.025 kg/ha): 4 (4 - Injury) | Rating GALAP (post-emergence application) (Galium aparine (GALAP); 0.100 kg/ha): 6 (6 - Herbicidal effect) | Rating GALAP (post-emergence application) (Galium aparine (GALAP); 0.400 kg/ha): 8 (8 - Approaching complete kill) | Rating IPOHE (post-emergence application) ([8]; 0.025 kg/ha): 5 (5 - Definite injury) | Rating IPOHE (post-emergence application) ([8]; 0.100 kg/ha): 9 (9 - Complete kill) | Rating IPOHE (post-emergence application) ([8]; 0.400 kg/ha): 9 (9 - Complete kill) | Rating LAMPU (post-emergence application) (Lamium purpureum (LAMPU); 0.025 kg/ha): 7 (7 - Good herbicidal effect) | Rating LAMPU (post-emergence application) (Lamium purpureum (LAMPU); 0.100 kg/ha): 9 (9 - Complete kill) | Rating LAMPU (post-emergence application) (Lamium purpureum (LAMPU); 0.400 kg/ha): 9 (9 - Complete kill) | Rating LOLMU (post-emergence application) ([9]; 0.025 kg/ha): 4 (4 - Injury) | Rating LOLMU (post-emergence application) ([9]; 0.100 kg/ha): 7 (7 - Good herbicidal effect) | Rating LOLMU (post-emergence application) ([9]; 0.400 kg/ha): 9 (9 - Complete kill) | Rating MATIN (post-emergence application) ([10]; 0.025 kg/ha): 4 (4 - Injury) | Rating MATIN (post-emergence application) ([10]; 0.100 kg/ha): 6 (6 - Herbicidal effect) | Rating MATIN (post-emergence application) ([10]; 0.400 kg/ha): 8 (8 - Approaching complete kill) | Rating SETVI (post-emergence application) (Setaria viridis (SETVI); 0.025 kg/ha): 3 (3 - Moderate effect) | Rating SETVI (post-emergence application) (Setaria viridis (SETVI); 0.100 kg/ha): 6 (6 - Herbicidal effect) | Rating SETVI (post-emergence application) (Setaria viridis (SETVI); 0.400 kg/ha): 8 (8 - Approaching complete kill) | Rating STEME (post-emergence application) (Stellaria media (STEME) [11]; 0.025 kg/ha): 7 (7 - Good herbicidal effect) | Rating STEME (post-emergence application) (Stellaria media (STEME) [11]; 0.100 kg/ha): 9 (9 - Complete kill) | Rating STEME (post-emergence application) (Stellaria media (STEME) [11]; 0.400 kg/ha): 9 (9 - Complete kill) | Active ingredient required for maize selective weed control relative to the compound of the invention [12]: four times more active ingredient | Herbicidal activity, overall judgement [12]: clearly inferior in activity | Rate required to obtain the same level of weed control [12]: 0.400 kg/ha | Number of weed species well / sufficiently controlled ([12]; 0.100 kg/ha): six out of thirteen species | Number of weed species well / sufficiently controlled ([12]; 0.400 kg/ha): ten | Number of weed species controlled (weed species; 0.025 kg/ha): one species | Number of weed species controlled (weed species; 0.100 kg/ha): four species
